Data published in PubChem BioAssay AID1259407 (Chemical Carcinogenesis Research Information System (CCRIS), 2018).
Activity calls are given as the source filed them. How the calls were made is not given here.

Tested on: CCRIS mutagenicity, Ames/micronucleus/aberration tests
Experiment: CCRIS mutagenicity studies
[1] = Test System: AMES SALMONELLA TYPHIMURIUM, Strain/Indicator: TA97, Metabolic Activation: RAT, LIVER, S-9, AROCLOR 1254, Method: STANDARD PLATE
[2] = Test System: AMES SALMONELLA TYPHIMURIUM, Strain/Indicator: TA98, Metabolic Activation: NONE, Method: STANDARD PLATE
[3] = Test System: AMES SALMONELLA TYPHIMURIUM, Strain/Indicator: TA98, Metabolic Activation: RAT, LIVER, S-9, AROCLOR 1254, Method: STANDARD PLATE
[4] = Test System: AMES SALMONELLA TYPHIMURIUM, Strain/Indicator: TA100, Metabolic Activation: NONE, Method: STANDARD PLATE
[5] = Test System: AMES SALMONELLA TYPHIMURIUM, Strain/Indicator: TA104, Metabolic Activation: NONE, Method: PREINCUBATION
[6] = Test System: AMES SALMONELLA TYPHIMURIUM, Strain/Indicator: TA98, Metabolic Activation: NONE, Method: PREINCUBATION
[7] = Test System: AMES SALMONELLA TYPHIMURIUM, Strain/Indicator: TA100, Metabolic Activation: NONE, Method: PREINCUBATION
[8] = Test System: AMES SALMONELLA TYPHIMURIUM, Strain/Indicator: TA1535, Metabolic Activation: NONE, Method: PREINCUBATION

How did the mutagenic call (Test System: AMES SALMONELLA TYPHIMURIUM, Strain/Indicator: TA97, Metabolic Activation: NONE, Method: STANDARD PLATE) turn out when `Clc1cccnc1Cl` was run?
The mutagenic call was “inactive; negative”.

And the mutagenic call [1]?
Its mutagenic call is “active; positive”.

And the mutagenic call [2]?
The mutagenic call was “inactive; negative”.

What about the mutagenic call [3] of the same compound?
Its mutagenic call is “inactive; negative”.

What about the mutagenic call [4] of the same compound?
Its mutagenic call is “inactive; negative”.

And the mutagenic call (Test System: AMES SALMONELLA TYPHIMURIUM, Strain/Indicator: TA102, Metabolic Activation: NONE, Method: STANDARD PLATE)?
The mutagenic call was “inactive; negative”.

And the mutagenic call (Test System: AMES SALMONELLA TYPHIMURIUM, Strain/Indicator: TA102, Metabolic Activation: RAT, LIVER, S-9, AROCLOR 1254, Method: STANDARD PLATE)?
The mutagenic call was “inactive; negative”.

With `O=C(Nc1cccc(F)c1)c1csc([N+](=O)[O-])c1` as the compound, how does the mutagenic call [2] read?
Its mutagenic call is “active; positive”.

And the mutagenic call [4]?
The mutagenic call was “active; positive”.

With `Oc1ccc(O)c2ccccc12` as the compound, how does the mutagenic call [5] read?
The mutagenic call was “active; positive”.

What about the mutagenic call (Test System: AMES SALMONELLA TYPHIMURIUM, Strain/Indicator: TA2637, Metabolic Activation: RAT, LIVER, S-9, PHENOBARBITAL AND 5,6-BENZOFLAVONE, Method: PREINCUBATION) of the same compound?
The mutagenic call was “active; positive”.

How did the mutagenic call (Test System: AMES SALMONELLA TYPHIMURIUM, Strain/Indicator: TA97, Metabolic Activation: HAMSTER, LIVER, S-9, AROCLOR 1254 (10%), Method: PREINCUBATION) turn out when `O=Cc1ccccc1Cl` was run?
The mutagenic call was “inactive; negative”.

What about the mutagenic call (Test System: AMES SALMONELLA TYPHIMURIUM, Strain/Indicator: TA97, Metabolic Activation: HAMSTER, LIVER, S-9, AROCLOR 1254 (30%), Method: PREINCUBATION) of the same compound?
Its mutagenic call is “inactive; negative”.

And the mutagenic call (Test System: AMES SALMONELLA TYPHIMURIUM, Strain/Indicator: TA97, Metabolic Activation: NONE, Method: PREINCUBATION)?
Its mutagenic call is “inactive; negative”.

What about the mutagenic call (Test System: AMES SALMONELLA TYPHIMURIUM, Strain/Indicator: TA97, Metabolic Activation: RAT, LIVER, S-9, AROCLOR 1254 (10%), Method: PREINCUBATION) of the same compound?
Its mutagenic call is “inactive; negative”.

And the mutagenic call (Test System: AMES SALMONELLA TYPHIMURIUM, Strain/Indicator: TA97, Metabolic Activation: RAT, LIVER, S-9, AROCLOR 1254 (30%), Method: PREINCUBATION)?
The mutagenic call was “inactive; negative”.

What about the mutagenic call (Test System: AMES SALMONELLA TYPHIMURIUM, Strain/Indicator: TA98, Metabolic Activation: HAMSTER, LIVER, S-9, AROCLOR 1254 (10%), Method: PREINCUBATION) of the same compound?
Its mutagenic call is “inactive; negative”.

And the mutagenic call (Test System: AMES SALMONELLA TYPHIMURIUM, Strain/Indicator: TA98, Metabolic Activation: HAMSTER, LIVER, S-9, AROCLOR 1254 (30%), Method: PREINCUBATION)?
The mutagenic call was “inactive; negative”.

And the mutagenic call [6]?
The mutagenic call was “inactive; negative”.

What about the mutagenic call (Test System: AMES SALMONELLA TYPHIMURIUM, Strain/Indicator: TA98, Metabolic Activation: RAT LIVER S-9, PCB, Method: PREINCUBATION) of the same compound?
The mutagenic call was “inactive; negative”.

And the mutagenic call (Test System: AMES SALMONELLA TYPHIMURIUM, Strain/Indicator: TA98, Metabolic Activation: RAT, LIVER, S-9, AROCLOR 1254 (10%), Method: PREINCUBATION)?
Its mutagenic call is “inactive; negative”.

And the mutagenic call (Test System: AMES SALMONELLA TYPHIMURIUM, Strain/Indicator: TA98, Metabolic Activation: RAT, LIVER, S-9, AROCLOR 1254 (30%), Method: PREINCUBATION)?
Its mutagenic call is “inactive; negative”.

What about the mutagenic call (Test System: AMES SALMONELLA TYPHIMURIUM, Strain/Indicator: TA100, Metabolic Activation: HAMSTER, LIVER, S-9, AROCLOR 1254 (10%), Method: PREINCUBATION) of the same compound?
Its mutagenic call is “inactive; negative”.

What about the mutagenic call (Test System: AMES SALMONELLA TYPHIMURIUM, Strain/Indicator: TA100, Metabolic Activation: HAMSTER, LIVER, S-9, AROCLOR 1254 (30%), Method: PREINCUBATION) of the same compound?
Its mutagenic call is “inactive; negative”.

And the mutagenic call [7]?
Its mutagenic call is “inactive; negative”.

And the mutagenic call (Test System: AMES SALMONELLA TYPHIMURIUM, Strain/Indicator: TA100, Metabolic Activation: RAT LIVER S-9, PCB, Method: PREINCUBATION)?
Its mutagenic call is “inactive; negative”.

And the mutagenic call (Test System: AMES SALMONELLA TYPHIMURIUM, Strain/Indicator: TA100, Metabolic Activation: RAT, LIVER, S-9, AROCLOR 1254 (10%), Method: PREINCUBATION)?
The mutagenic call was “inactive; negative”.

And the mutagenic call (Test System: AMES SALMONELLA TYPHIMURIUM, Strain/Indicator: TA100, Metabolic Activation: RAT, LIVER, S-9, AROCLOR 1254 (30%), Method: PREINCUBATION)?
The mutagenic call was “inactive; negative”.

What about the mutagenic call [5] of the same compound?
Its mutagenic call is “inactive; negative”.

And the mutagenic call (Test System: AMES SALMONELLA TYPHIMURIUM, Strain/Indicator: TA104, Metabolic Activation: RAT LIVER S-9, PCB, Method: PREINCUBATION)?
Its mutagenic call is “inactive; negative”.

And the mutagenic call (Test System: AMES SALMONELLA TYPHIMURIUM, Strain/Indicator: TA1535, Metabolic Activation: HAMSTER, LIVER, S-9, AROCLOR 1254 (10%), Method: PREINCUBATION)?
Its mutagenic call is “inactive; negative”.

What about the mutagenic call (Test System: AMES SALMONELLA TYPHIMURIUM, Strain/Indicator: TA1535, Metabolic Activation: HAMSTER, LIVER, S-9, AROCLOR 1254 (30%), Method: PREINCUBATION) of the same compound?
Its mutagenic call is “inactive; negative”.

And the mutagenic call [8]?
Its mutagenic call is “inactive; negative”.

And the mutagenic call (Test System: AMES SALMONELLA TYPHIMURIUM, Strain/Indicator: TA1535, Metabolic Activation: RAT, LIVER, S-9, AROCLOR 1254 (10%), Method: PREINCUBATION)?
The mutagenic call was “inactive; negative”.

What about the mutagenic call (Test System: AMES SALMONELLA TYPHIMURIUM, Strain/Indicator: TA1535, Metabolic Activation: RAT, LIVER, S-9, AROCLOR 1254 (30%), Method: PREINCUBATION) of the same compound?
The mutagenic call was “inactive; negative”.

What about the mutagenic call (Test System: AMES SALMONELLA TYPHIMURIUM, Strain/Indicator: TA1537, Metabolic Activation: HAMSTER, LIVER, S-9, AROCLOR 1254 (30%), Method: PREINCUBATION) of the same compound?
Its mutagenic call is “inactive; negative”.

What about the mutagenic call (Test System: AMES SALMONELLA TYPHIMURIUM, Strain/Indicator: TA1537, Metabolic Activation: NONE, Method: PREINCUBATION) of the same compound?
Its mutagenic call is “inactive; negative”.

What about the mutagenic call (Test System: AMES SALMONELLA TYPHIMURIUM, Strain/Indicator: TA1537, Metabolic Activation: RAT, LIVER, S-9, AROCLOR 1254 (30%), Method: PREINCUBATION) of the same compound?
The mutagenic call was “inactive; negative”.

And the mutagenic call (Test System: E.COLI, Strain/Indicator: WP2 UVRA, Metabolic Activation: RAT LIVER S-9, PCB, Method: PREINCUBATION)?
Its mutagenic call is “inactive; negative”.

For `O=NN1CCOC(O)C1` (centres undefined), which mutagenic call [7] is on record?
The mutagenic call was “active; positive”.

What about the mutagenic call [8] of the same compound?
Its mutagenic call is “active; positive”.

What about the mutagenic call (Test System: AMES SALMONELLA TYPHIMURIUM, Strain/Indicator: TA1535, Metabolic Activation: RAT, LIVER, S-9, AROCLOR 1254, Method: PREINCUBATION) of the same compound?
The mutagenic call was “active; positive”.

Which mutagenic call [1] does the source give for `Cc1ccc2nc3n(C)c4ccccc4c(C)c-3c2c1` here?
The mutagenic call was “active; positive”.

And the mutagenic call [3]?
The mutagenic call was “active; positive”.

Which mutagenic call [4] does the source give for `CN(C)C(=O)Cl` here?
Its mutagenic call is “active; positive”.

And the mutagenic call (Test System: AMES SALMONELLA TYPHIMURIUM, Strain/Indicator: TA1535, Metabolic Activation: NONE, Method: STANDARD PLATE)?
The mutagenic call was “active; positive”.

What about the mutagenic call (Test System: E. COLI, Strain/Indicator: WP2 UVRA, Metabolic Activation: HAMSTER, LIVER, S-9, AROCLOR 1254, Method: PREINCUBATION) of the same compound?
Its mutagenic call is “inactive; negative”.

And the mutagenic call (Test System: E. COLI, Strain/Indicator: WP2 UVRA, Metabolic Activation: HAMSTER, LIVER, S-9, AROCLOR 1254, Method: STANDARD PLATE)?
Its mutagenic call is “inactive; negative”.

And the mutagenic call (Test System: E. COLI, Strain/Indicator: WP2 UVRA, Metabolic Activation: HAMSTER, LIVER, S-9, Method: STANDARD PLATE)?
Its mutagenic call is “inactive; negative”.

What about the mutagenic call (Test System: E. COLI, Strain/Indicator: WP2 UVRA, Metabolic Activation: MOUSE, LIVER, S-9, AROCLOR 1254, Method: PREINCUBATION) of the same compound?
Its mutagenic call is “inactive; negative”.

What about the mutagenic call (Test System: E. COLI, Strain/Indicator: WP2 UVRA, Metabolic Activation: MOUSE, LIVER, S-9, AROCLOR 1254, Method: STANDARD PLATE) of the same compound?
Its mutagenic call is “inactive; negative”.

What about the mutagenic call (Test System: E. COLI, Strain/Indicator: WP2 UVRA, Metabolic Activation: MOUSE, LIVER, S-9, Method: PREINCUBATION) of the same compound?
Its mutagenic call is “inactive; negative”.

And the mutagenic call (Test System: E. COLI, Strain/Indicator: WP2 UVRA, Metabolic Activation: MOUSE, LIVER, S-9, Method: STANDARD PLATE)?
The mutagenic call was “inactive; negative”.

What about the mutagenic call (Test System: E. COLI, Strain/Indicator: WP2 UVRA, Metabolic Activation: NONE, Method: STANDARD PLATE) of the same compound?
Its mutagenic call is “inactive; negative”.

What about the mutagenic call (Test System: E. COLI, Strain/Indicator: WP2 UVRA, Metabolic Activation: RAT, LIVER, S-9, AROCLOR 1254, Method: STANDARD PLATE) of the same compound?
Its mutagenic call is “inactive; negative”.

What about the mutagenic call (Test System: E. COLI, Strain/Indicator: WP2 UVRA, Metabolic Activation: RAT, LIVER, S-9, Method: STANDARD PLATE) of the same compound?
Its mutagenic call is “inactive; negative”.

What about the mutagenic call (Test System: MOUSE LYMPHOMA, Strain/Indicator: L5178Y (TK+/TK-), Metabolic Activation: NONE, Method: SUSPENSION/PLATE) of the same compound?
The mutagenic call was “active; positive”.

And the mutagenic call (Test System: MOUSE LYMPHOMA, Strain/Indicator: L5178Y (TK+/TK-), Metabolic Activation: RAT, LIVER, S-9, AROCLOR 1254, Method: SUSPENSION/PLATE)?
The mutagenic call was “active; positive”.

How did the mutagenic call [6] turn out when `Cc1cccc2c3c(c4cc5ccccc5cc4c12)N3` was run?
The mutagenic call was “active; positive”.
